Read-outs that look alike come from different tables or passages of the source.
Target: human TYK2 (JH2domain-pseudokinase) (Homo sapiens (Human), UniProt P29597)
Assay: TYK2 JH2 Domain Binding Assay (KINOMEscan)
[1] = Table 4, JH2 binding assay, read-out: JH2 Kd
[2] = Table 5, Tyk2 JH2 Domain Binding Assay, read-out: JH2 Kd

Chain of human TYK2 (JH2domain-pseudokinase) (P29597 556-888): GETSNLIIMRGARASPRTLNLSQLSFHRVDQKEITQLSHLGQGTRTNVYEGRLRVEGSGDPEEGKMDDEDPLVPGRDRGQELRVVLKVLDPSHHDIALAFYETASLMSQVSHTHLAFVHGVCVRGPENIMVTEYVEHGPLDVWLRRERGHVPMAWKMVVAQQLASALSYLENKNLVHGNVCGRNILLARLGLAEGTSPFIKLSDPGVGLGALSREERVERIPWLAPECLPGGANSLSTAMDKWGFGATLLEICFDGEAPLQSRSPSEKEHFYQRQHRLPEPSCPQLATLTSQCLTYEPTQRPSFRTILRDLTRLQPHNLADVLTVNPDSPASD

Row | Kd [1] [nM] | Structure (SMILES) | also measured
1 | 1 to 10 | COc1c(F)cccc1Nc1cc(Nc2cccc(N3CC(OC)C3)n2)nc2[nH]n(C)c(=O)c12 [Compound I-94, 4-((3-fluoro-2-methoxyphenyl)amino)-6-((6-(3-methoxyazetidin-1-yl)pyridin-2-yl)amino)-2-methyl-1,2-dihydro-3H-pyrazolo[3,4-b]pyridin-3-one] | 
2 | < 0.1 | COc1c(Nc2cc(Nc3ccc(C)nn3)nc3[nH]n(C)c(=O)c23)cccc1-c1nnn(C)n1 [Compound I-10, 4-((2-methoxy-3-(2-methyl-2H-tetrazol-5-yl)phenyl)amino)-2-methyl-6-((6-methylpyridazin-3-yl)amino)-1,2-dihydro-3H-pyrazolo[3,4-b]pyridin-3-one] | 
3 | 0.5 to 1 | Cc1ccc(Nc2cc(Nc3ccc(Cl)cc3S(C)(=O)=O)c3c(=O)n(C)[nH]c3n2)nn1 [Compound I-157, 4-((4-chloro-2-(methylsulfonyl)phenyl)amino)-2-methyl-6-((6-methylpyridazin-3-yl)amino)-1,2-dihydro-3H-pyrazolo[3,4-b]pyridin-3-one] | 
4 | > 10 | CCc1ncc(Nc2cc(Nc3cccc(Cl)c3OC)c3c(=O)n(C)[nH]c3n2)nc1C#N [Compound I-147, 6-((4-((3-chloro-2-methoxyphenyl)amino)-2-methyl-3-oxo-2,3-dihydro-1H-pyrazolo[3,4-b]pyridin-6-yl)amino)-3-ethylpyrazine-2-carbonitrile] | 
5 | > 10 | COc1c(Cl)cccc1Nc1cc(Nc2cnc(C3CC3)c(C#N)n2)nc2[nH]n(C)c(=O)c12 [Compound I-146, 6-((4-((3-chloro-2-methoxyphenyl)amino)-2-methyl-3-oxo-2,3-dihydro-1H-pyrazolo[3,4-b]pyridin-6-yl)amino)-3-cyclopropylpyrazine-2-carbonitrile] | 
6 | 0.1 to 0.5 | COc1c(Nc2cc(Nc3ccc(C#N)cn3)nc3[nH]n(C)c(=O)c23)cccc1-c1ncn(C)n1 [Compound I-25, 6-((4-((2-methoxy-3-(1-methyl-1H-1,2,4-triazol-3-yl)phenyl)amino)-2-methyl-3-oxo-2,3-dihydro-1H-pyrazolo[3,4-b]pyridin-6-yl)amino)nicotinonitrile] | 
7 |  | CNc1nc(-c2cccc(-c3nnn(C)n3)c2OC)n2cc(NC(=O)C3CC3)ncc12 [XVI-2] | Kd [2]: > 100 nM; Kd (Tyk2 JH2 Domain Binding Assay, read-out: Kd): 10 to 185 nM
8 |  | COc1c(Nc2cc(Nc3ccc(C)nn3)ncc2-c2nnc(CO)o2)cccc1-c1ncn(C)n1 [VIII-12, (5-(4-((2-methoxy-3-(1-methyl-1H-1,2,4-triazol-3-yl)phenyl)amino)-6-((6-methylpyridazin-3-yl)amino)pyridin-3-yl)-1,3,4-oxadiazol-2-yl)methanol] | Kd [2]: 0.1 to 1 nM
9 | > 10 | COCc1ccnc(Nc2cc(Nc3cccc(C#N)c3OC)c3c(=O)n(C)[nH]c3n2)c1 [Compound I-35] | 
10 | 0.1 to 0.5 | COc1c(F)cccc1Nc1cc(Nc2cccc(C#N)n2)nc2[nH]n(C)c(=O)c12 [Compound I-81, 6-((4-((3-fluoro-2-methoxyphenyl)amino)-2-methyl-3-oxo-2,3-dihydro-1H-pyrazolo[3,4-b]pyridin-6-yl)amino)picolinonitrile] | 
11 | 0.1 to 0.5 | Cn1[nH]c2nc(Nc3ccc(C#N)cn3)cc(Nc3ccccc3S(C)(=O)=O)c2c1=O [Compound I-139, 6-((2-methyl-4-((2-(methylsulfonyl)phenyl)amino)-3-oxo-2,3-dihydro-1H-pyrazolo[3,4-b]pyridin-6-yl)amino)nicotinonitrile] | 
12 | 0.1 to 0.5 | COc1c(Cl)cccc1Nc1cc(Nc2cc(C)nc(C)n2)nc2[nH]n(C)c(=O)c12 [Compound I-96, 4-((3-chloro-2-methoxyphenyl)amino)-6-((2,6-dimethylpyrimidin-4-yl)amino)-2-methyl-1,2-dihydro-3H-pyrazolo[3,4-b]pyridin-3-on] | 
13 | 0.5 to 1 | COc1c(F)cccc1Nc1cc(Nc2cncc(C#N)n2)nc2[nH]n(C)c(=O)c12 [Compound I-85, 6-((4-((3-fluoro-2-methoxyphenyl)amino)-2-methyl-3-oxo-2,3-dihydro-1H-pyrazolo[3,4-b]pyridin-6-yl)amino)pyrazine-2-carbonitrile] | 
14 | 0.1 to 0.5 | Cn1[nH]c2nc(NC(=O)C3CC3(F)F)cc(Nc3ccc(C4CC4)cc3S(C)(=O)=O)c2c1=O (centres unmarked) [Compound I-239, N-(4-((4-cyclopropyl-2-(methylsulfonyl)phenyl)amino)-2-methyl-3-oxo-2,3-dihydro-1H-pyrazolo[3,4-b]pyridin-6-yl)-2,2-difluorocyclopropane-1-carboxamide] | 
15 | > 10 | COc1c(F)cccc1Nc1cc(Nc2ccc(C(F)F)c(C#N)n2)nc2[nH]n(C)c(=O)c12 [Compound I-191, 3-(difluoromethyl)-6-((4-((3-fluoro-2-methoxyphenyl)amino)-2-methyl-3-oxo-2,3-dihydro-1H-pyrazolo[3,4-b]pyridin-6-yl)amino)picolinonitrile] | 
16 | 1 to 10 | COc1c(F)cccc1Nc1cc(Nc2ccccn2)nc2[nH]n(C)c(=O)c12 [Compound I-80, 4-((3-fluoro-2-methoxyphenyl)amino)-2-methyl-6-(pyridin-2-ylamino)-1,2-dihydro-3H-pyrazolo[3,4-b]pyridin-3-one] | 
17 | 0.1 to 0.5 | COc1c(Nc2cc(Nc3ccc(C4CC4)cn3)nc3[nH]n(C)c(=O)c23)cccc1-c1nnn(C)n1 [Compound I-59, 6-((5-cyclopropylpyridin-2-yl)amino)-4-((2-methoxy-3-(2-methyl-2H-tetrazol-5-yl)phenyl)amino)-2-methyl-1,2-dihydro-3H-pyrazolo[3,4-b]pyridin-3-one] | 
18 | 1 to 10 | COc1cc(CO)ccc1Nc1cc(NC(=O)C2CC2)nc2[nH]n(C)c(=O)c12 [Compound I-44] | 
19 | 1 to 10 | COc1c(Cl)cccc1Nc1cc(Nc2cc(C)c(F)cn2)nc2[nH]n(C)c(=O)c12 [Compound I-95, 4-((3-chloro-2-methoxyphenyl)amino)-6-((5-fluoro-4-methylpyridin-2-yl)amino)-2-methyl-1,2-dihydro-3H-pyrazolo[3,4-b]pyridin-3-one] | 

Row | Structure (SMILES) | Kd [1] [nM] | also measured
20 | COc1c(Nc2cc(NC(=O)C3CC3)nc3[nH]n(C)c(=O)c23)cccc1-c1nc(C)nn1C [Compound I-46, N-(4-((3-(1,3-dimethyl-1H-1,2,4-triazol-5-yl)-2-methoxyphenyl)amino)-2-methyl-3-oxo-2,3-dihydro-1H-pyrazolo[3,4-b]pyridin-6-yl)cyclopropanecarboxamide] | 0.5 to 1 | 
21 | COc1c(Nc2cc(NC(=O)C3CC3)nc3[nH]n(C)c(=O)c23)cccc1-n1cccn1 [Compound I-56, N-(4-((2-methoxy-3-(1H-pyrazol-1-yl)phenyl)amino)-2-methyl-3-oxo-2,3-dihydro-1H-pyrazolo[3,4-b]pyridin-6-yl)cyclopropanecarboxamide] | 0.5 to 1 | 
22 | CCc1ccc(Nc2cc(NC(=O)C3CC3)nc3[nH]n(C)c(=O)c23)c(N(C)S(C)(=O)=O)c1 [Compound I-217, N-(4-((4-ethyl-2-(N-methylmethylsulfonamido)phenyl)amino)-2-methyl-3-oxo-2,3-dihydro-1H-pyrazolo[3,4-b]pyridin-6-yl)cyclopropanecarboxamide] | < 0.1 | 
23 | COc1c(Nc2cc(NC(=O)C3CC3)nc3[nH]n(C)c(=O)c23)cccc1N1CCCC1=O [Compound I-88, N-(4-((2-methoxy-3-(2-oxopyrrolidin-1-yl)phenyl)amino)-2-methyl-3-oxo-2,3-dihydro-1H-pyrazolo[3,4-b]pyridin-6-yl)cyclopropanecarboxamide] | 1 to 10 | 
24 | COCc1ccnc(Nc2cc(Nc3ccc(C4CC4)cc3S(C)(=O)=O)c3c(=O)n(C)[nH]c3n2)c1 [Compound I-214, 4-((4-cyclopropyl-2-(methylsulfonyl)phenyl)amino)-6-((4-(methoxymethyl)pyridin-2-yl)amino)-2-methyl-1,2-dihydro-3H-pyrazolo[3,4-b]pyridin-3-one] | 0.1 to 0.5 | 
25 | Cn1[nH]c2nc(NC(=O)C3CC3)cc(Nc3ccc(C4CC4)cc3S(C)(=O)=O)c2c1=O [Compound I-201, N-(4-((4-cyclopropyl-2-(methylsulfonyl)phenyl)amino)-2-methyl-3-oxo-2,3-dihydro-1H-pyrazolo[3,4-b]pyridin-6-yl)cyclopropanecarboxamide] | < 0.1 | 
26 | CCc1ccc(Nc2cc(NC(=O)C3CC3)nc3[nH]n(C)c(=O)c23)c(S(C)(=O)=O)c1 [Compound I-152, N-(4-((4-ethyl-2-(methylsulfonyl)phenyl)amino)-2-methyl-3-oxo-2,3-dihydro-1H-pyrazolo[3,4-b]pyridin-6-yl)cyclopropanecarboxamide] | 0.5 to 1 | 
27 | COCc1ccc(Nc2cc(Nc3ccc(C)c(C(F)(F)F)n3)nc3[nH]n(C)c(=O)c23)c(OC)c1 [Compound I-93, 4-((2-methoxy-4-(methoxymethyl)phenyl)amino)-2-methyl-6-((5-methyl-6-(trifluoromethyl)pyridin-2-yl)amino)-1,2-dihydro-3H-pyrazolo[3,4-b]pyridin-3-one] | 1 to 10 | 
28 | CN(c1cc(C2CCC2)ccc1Nc1cc(NC(=O)[C@@H]2C[C@@H]2F)nc2[nH]n(C)c(=O)c12)S(C)(=O)=O [Compound I-236, (1S,2S)-N-(4-((4-cyclobutyl-2-(N-methylmethylsulfonamido)phenyl)amino)-2-methyl-3-oxo-2,3-dihydro-1H-pyrazolo[3,4-b]pyridin-6-yl)-2-fluorocyclopropane-1-carboxamide] | > 10 | 
29 | Cc1cc(Nc2cc(Nc3ccc(C4CC4)cc3S(C)(=O)=O)c3c(=O)n(C)[nH]c3n2)nc(C)n1 [Compound I-206, 4-((4-cyclopropyl-2-(methylsulfonyl)phenyl)amino)-6-((2,6-dimethylpyrimidin-4-yl)amino)-2-methyl-1,2-dihydro-3H-pyrazolo[3,4-b]pyridin-3-one] | 0.5 to 1 | 
30 | Cn1[nH]c2nc(NC(=O)C3CC3)cc(Nc3ccc(C(=O)N4CCCC4)cc3OC(F)F)c2c1=O [Compound I-151] | > 10 | 
31 | CN(c1cc(Cl)ccc1Nc1cc(NC(=O)C2CC2)nc2[nH]n(C)c(=O)c12)S(C)(=O)=O [Compound I-228, N-(4-((4-chloro-2-(N-methylmethylsulfonamido)phenyl)amino)-2-methyl-3-oxo-2,3-dihydro-1H-pyrazolo[3,4-b]pyridin-6-yl)cyclopropanecarboxamide] | 0.1 to 0.5 | 
